Target: T1, CFTR-ΔF508 (Homo sapiens, UniProt P13569, DEL508-508)
T1 construct: expressed in transfected cells
Assay: Cell surface ELISA (anti-HA) in HeLa cells stably expressing HA-tagged CFTR-ΔF508
Assay type: cell-based
Settings: for surface display of ΔF508-CFTR (live cell-surface ELISA): HeLa-ΔF508-CFTR-HA cells treated daily with drugs, 72 hr post-treatment, vs DMSO (FIG. 28, 29); for mutant CFTR at the cell surface (ELISA): HeLa cells, CFTR-ΔF508-3HA under CMV promoter, oligonucleotide transfection, 6, 12, 24 hrs

T1 sequence (P13569 with tags, fused parts or gaps DEL508-508): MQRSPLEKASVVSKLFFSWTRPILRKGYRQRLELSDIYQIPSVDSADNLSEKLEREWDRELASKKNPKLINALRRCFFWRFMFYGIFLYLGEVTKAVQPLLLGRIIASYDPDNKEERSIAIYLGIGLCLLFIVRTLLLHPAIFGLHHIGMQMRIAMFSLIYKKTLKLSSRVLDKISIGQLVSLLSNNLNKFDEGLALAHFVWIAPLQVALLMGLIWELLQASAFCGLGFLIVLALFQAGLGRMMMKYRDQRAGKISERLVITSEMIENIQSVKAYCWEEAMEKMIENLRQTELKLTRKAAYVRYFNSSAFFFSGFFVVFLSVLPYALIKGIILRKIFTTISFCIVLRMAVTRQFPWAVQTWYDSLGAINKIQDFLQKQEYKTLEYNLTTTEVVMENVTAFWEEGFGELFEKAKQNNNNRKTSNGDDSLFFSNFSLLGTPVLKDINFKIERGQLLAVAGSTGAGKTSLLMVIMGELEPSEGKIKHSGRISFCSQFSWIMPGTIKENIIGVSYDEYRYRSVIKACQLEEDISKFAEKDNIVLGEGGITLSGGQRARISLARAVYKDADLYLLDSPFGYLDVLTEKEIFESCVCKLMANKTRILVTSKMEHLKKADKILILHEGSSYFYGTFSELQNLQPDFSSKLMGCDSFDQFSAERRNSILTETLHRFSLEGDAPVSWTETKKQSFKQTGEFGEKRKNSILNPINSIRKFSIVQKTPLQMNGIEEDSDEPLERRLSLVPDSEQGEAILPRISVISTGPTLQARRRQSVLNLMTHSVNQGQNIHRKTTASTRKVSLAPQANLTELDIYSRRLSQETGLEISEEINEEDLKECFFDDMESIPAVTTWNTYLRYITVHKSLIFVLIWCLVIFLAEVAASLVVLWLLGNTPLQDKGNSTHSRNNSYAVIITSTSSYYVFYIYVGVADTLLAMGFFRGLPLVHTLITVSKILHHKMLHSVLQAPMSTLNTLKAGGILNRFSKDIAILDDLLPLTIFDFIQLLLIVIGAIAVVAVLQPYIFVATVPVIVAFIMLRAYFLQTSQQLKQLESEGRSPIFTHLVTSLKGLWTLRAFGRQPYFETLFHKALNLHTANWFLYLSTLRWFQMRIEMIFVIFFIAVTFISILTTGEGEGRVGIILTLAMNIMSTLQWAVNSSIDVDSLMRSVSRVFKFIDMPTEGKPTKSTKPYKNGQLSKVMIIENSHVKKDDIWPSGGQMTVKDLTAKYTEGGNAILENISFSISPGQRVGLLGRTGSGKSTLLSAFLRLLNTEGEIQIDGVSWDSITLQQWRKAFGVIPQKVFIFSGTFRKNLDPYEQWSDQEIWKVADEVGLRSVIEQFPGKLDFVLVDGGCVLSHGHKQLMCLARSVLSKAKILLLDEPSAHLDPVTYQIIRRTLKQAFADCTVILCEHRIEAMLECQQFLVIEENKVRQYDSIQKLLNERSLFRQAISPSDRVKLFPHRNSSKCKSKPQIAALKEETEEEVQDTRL

O[C@](CCN1CCCCC1)(c1ccccc1)[C@H]1CC2C=CC1C2 (mixture of isomers) [Biperiden]
surface display of ΔF508-CFTR (live cell-surface ELISA): increased

CN1CCC(=C2c3ccccc3CCc3sccc32)CC1 [Pizotifen, 4-(1-methyl-4-piperidylidine)-9, 1 0-dihydro-4H-benzo-[4,5]cyclohepta[1,2]-thiophene]
surface display of ΔF508-CFTR (live cell-surface ELISA): increased

COc1cc2ncnc(Nc3cccc(Cl)c3)c2cc1OC [Tyrophostin (AG-1478), N-(3-chlorophenyl)-6,7-dimethoxy-4-quinazolinamine]
surface display of ΔF508-CFTR (live cell-surface ELISA): increased

SIN3A DsiRNA: Dicer-substrate siRNA against SIN3A, sense SEQ ID NO: 6, antisense SEQ ID NO: 7 (sense GCGAUACAUGAAUUCAGAUACUACC; antisense GGUAGUAUCUGAAUUCAUGUAUCGCUC; chemistry not given here)
mutant CFTR at the cell surface (ELISA): mutant CFTR reached the cell surface

miR-138 mimic: synthetic modified RNA duplex, sense SEQ ID NO: 4, antisense SEQ ID NO: 5, showing miR-138-like activity
mutant CFTR at the cell surface (ELISA): mutant CFTR reached the cell surface
